The values below come from patent publication US20130230486A1, “COMPOSITIONS AND METHODS TO INDUCE TARGETED APOPTOSIS” (priority 2010, published 2013).

Data set [1] deals with PTPN13. In words: PTPN13 protein expression by Western blot in lung fibroblasts. Type of data set: cell-based, human. Conditions: normal, fibrotic and MRC5 fibroblasts; TNF-α 10 ng/ml, IFN-γ 50 U/ml; 36 hours. On the procedure:
(§1) To assess the effects of these cytokines on PTPN13 expression, non-diseased normal human lung fibroblasts (NHLF), fibrotic human lung fibroblasts (FHLF) and a fetal lung fibroblast cell line, MRC5 cells, were treated with TNF-α (10/ng/ml), IFN-γ (50 U/ml) or with both cytokines for 6 hours. PTPN13 expression was measured by quantitative PCR (FIG. 2A). The primary lung fibroblasts from normal and fibrotic lung had equivalent levels of PTPN13 expression to the MRC5 lung fibroblast cell line. […] Treatment with TNF-α alone caused a 40% decrease in PTPN13 expression. Combined exposure to TNF-α and IFN-γ decreased PTPN13 mRNA expression by 80%. Protein lysates from normal, fibrotic and MRC5 fibroblasts treated for 36 hours with TNF-α (10/ng/ml), IFN-γ (50 U/ml) or with both cytokines were then analyzed for PTPN13 expression. […]
In one exemplary method, to assess whether PTPN13 expression prevents Fas-induced apoptosis, PTPN13 expression was knocked-down using siRNA. […] Apoptosis was assayed by quantifying activation of caspase-3 and caspase-8 (FIG. 3C).
FIG. 3: Decreased PTPN13 expression sensitizes fibroblasts to Fas-induced apoptosis. […] PTPN13 expression was quantified by western blot analysis and densitometry was performed. […] Fas activating antibody (250 ng/ml) (Fas activating antibody) or PBS (unstimulated) was added for 2 hours before analyzing Caspase-8 activation by a fluorescence-based assay. c. […]
(In general: In western blotting, separated proteins are transferred to a membrane and probed.)

Data set [2] has as its system PTPN13. In words: PTPN13 mRNA expression by quantitative PCR in lung fibroblasts. Type of data set: cell-based, human. Conditions: NHLF, FHLF and MRC5, IFN-γ 50 U/ml, 6 hours. On the procedure: as §1
FIG. 2: TNF-α and IFN-γ decrease PTPN13 expression. […] A. Top panel is a quantitative RT-PCR analysis of PTPN13 mRNA lower panel is a Western blot analysis for PTPN13 protein.B. Time course of PTPN13 mRNA expression following TNF-a (10 ng/ml) and IFN-g (50 U/ml) treatment. […] Caspase-8 was measured using a fluorescence based assay.
Total RNA was obtained from 1×10^6 MRC5 cells using the Qiagen RNA Miniprep Kit (Qiagen) following the manufacturer's instructions. […] The fluorescence values of the threshold cycles were collected and normalized to GAPDH. […]

In data set [3] the test system is murine model of fibrosis. In words: Bleomycin murine model of fibrosis, mortality. Type of data set: in vivo, mouse. The following applies: 2.5 U/kg bleomycin into the trachea. On the procedure: To assess the effect of PTPN13 on development of fibrosis in vivo, we used a murine model of fibrosis in a PTPN13-/- mouse. The PTPN13-/- mouse has been characterized by Grusby to have abnormal STAT4 signaling which leads to augmented skewing toward TH1 or TH2 phenotypes. 2.5 U/kg bleomycin was administered directly into the tracheas of PTPN13-/- mice along with wildtype controls. […] Due to drastic weight decreases in the wildtype mice, two weeks was chosen as the end time point. […] Of the 20 wildtype mice treated with bleomycin, 11 (55%) died before two weeks as compared to the PTPN13-/- mice where three of the 20 (15%) died. Saline had no effect on mortality. Then static compliance was measured. The saline treated wildtype and PTPN13-/- mice had similar values of static compliance. […] Collagen content was measured in the lung using a hydroxyproline assay. […] To determine a possible cause for the decreased static compliance in the PTPN13-/- mice, we also measured other markers of lung disease, such as cellular infiltration and capillary leak. We measured the cellularity of the bronchoalveolar fluid (BALF). […] Capillary leak was determined by albumin present in the BALF (FIG. 6F). […] To validate these findings, stereology was performed on lung sections to quantify presence of collagen and diseased areas. […] Percentage of diseased lung was also measured by stereology. […]

For TNF-α, in data set [1], the “PTPN13 protein expression (Western blot)” value is “decreased”. In addition, the “decrease in PTPN13 mRNA expression” value in data set [2] (TNF-α 10 ng/ml, compared to untreated cells) is listed as 40%.
Take “IFN-γ: Recombinant human IFN-γ purchased from R&D Systems”: the “PTPN13 protein expression (Western blot)” value in data set [1] was “not decreased”. Moreover, the “PTPN13 mRNA expression compared to untreated cells (in words)” value in data set [2] was “minimal decrease”.
For the substance bleomycin, the “mice that died before two weeks” value in data set [3] (PTPN13-/- mice, three of 20) was determined as 15%; in data set [3] (wildtype mice, 11 of 20), 55%.
